Experiments:
PRMT5 [1] = target: T1, PRMT5 (Homo sapiens, UniProt O14744); assay: PRMT5 inhibition assay with MTA as cofactor; assay type: biochemical; details: against PRMT5 with MTA as cofactor
T1 construct: purchased Viva (custom protein)
Description: The Ki values can be calculated from the IC50 values as described in the Examples section. As detailed in the Examples section, for the assay performed in the presence of SAM, IC50=Ki×1.5 (Ki=IC50/1.5). For the assay performed in the presence of MTA, IC50=Ki×13.5 (Ki=IC50/13.5). Column 6 indicates the ratio between the Ki of compounds in the presence of SAM and the Ki of compounds in the presence of MTA

PRMT5 [2] = target: T1, PRMT5; assay: PRMT5 inhibition assay with no cofactor; assay type: biochemical; details: against PRMT5 with no cofactor; read-out: No Co-factor IC50
[3] = tested on: HAP1 MTAP-deleted cell line; assay: SDMA in-cell western assay, HAP1 MTAP-deleted; assay type: cell-based; details: for IC50: Homo sapiens, HAP1 MTAP-deleted (MTAP-null) cell line; for MTAP Intact/Deleted Ratio: IC50 ratio HAP1 MTAP-intact / HAP1 MTAP-deleted, >=3 fold considered MTAP-selective
Method: (§1) Table 1 also indicates IC50 values in an MTAP-isogenic cell line pair for exemplary compounds in an SDMA in-cell western assay (columns 7-8). HAP1 MTAP-intact is a cell line in which endogenous levels of MTAP are expressed, and HAP1 MTAP-deleted is an MTAP-null cell line. For Table 1, “a*” and “aa*” indicates an IC50 of <1 μM, “b*” and “bb*” indicates an IC50 equal to or greater than 1 μM but less than 10 μM, and “c*” and “cc*” indicates an IC50 of greater than or equal to 10 μM in the HAP1 MTAP-intact and the HAP1 MTAP-deleted assays, respectively. In column 9, “A*” indicates an IC50 ratio greater than or equal to 10 fold between the IC50 in the HAP1 MTAP-intact cell line and the HAP1 MTAP-deleted cell line; “B*” indicates an IC50 ratio greater than or equal to 3 fold but lower than 10 fold between the IC50 in the HAP1 MTAP-intact cell line and the HAP1 MTAP-deleted cell line; “C*” indicates an IC50 ratio of less than 3 fold between the IC50 in the HAP1 MTAP-intact cell line and the HAP1 MTAP-deleted cell line. Compounds with a ratio in the SDMA in-cell western assay of equal to or greater than 3 fold are considered MTAP-selective.

[4] = tested on: HAP1 MTAP-intact cell line; assay: SDMA in-cell western assay, HAP1 MTAP-intact; assay type: cell-based; details: Homo sapiens
Method: as §1

T1 sequence (O14744 whole entry): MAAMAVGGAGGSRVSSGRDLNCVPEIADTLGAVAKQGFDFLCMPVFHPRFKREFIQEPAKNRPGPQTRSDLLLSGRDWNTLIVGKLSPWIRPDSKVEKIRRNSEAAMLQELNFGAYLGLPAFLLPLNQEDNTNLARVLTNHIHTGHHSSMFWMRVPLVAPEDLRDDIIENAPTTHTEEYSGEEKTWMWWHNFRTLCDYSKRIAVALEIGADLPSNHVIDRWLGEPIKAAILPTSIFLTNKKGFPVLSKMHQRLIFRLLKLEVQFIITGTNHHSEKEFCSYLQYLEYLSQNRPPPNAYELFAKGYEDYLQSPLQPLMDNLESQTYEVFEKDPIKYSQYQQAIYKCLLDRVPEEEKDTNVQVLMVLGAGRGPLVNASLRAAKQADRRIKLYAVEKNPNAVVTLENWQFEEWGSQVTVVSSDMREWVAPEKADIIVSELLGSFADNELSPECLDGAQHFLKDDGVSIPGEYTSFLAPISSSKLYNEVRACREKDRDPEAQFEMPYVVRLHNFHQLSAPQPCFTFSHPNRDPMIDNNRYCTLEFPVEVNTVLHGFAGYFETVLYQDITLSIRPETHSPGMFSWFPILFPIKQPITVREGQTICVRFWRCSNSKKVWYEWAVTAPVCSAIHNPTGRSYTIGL
T1 sequence (Q9BQA1 whole entry partner): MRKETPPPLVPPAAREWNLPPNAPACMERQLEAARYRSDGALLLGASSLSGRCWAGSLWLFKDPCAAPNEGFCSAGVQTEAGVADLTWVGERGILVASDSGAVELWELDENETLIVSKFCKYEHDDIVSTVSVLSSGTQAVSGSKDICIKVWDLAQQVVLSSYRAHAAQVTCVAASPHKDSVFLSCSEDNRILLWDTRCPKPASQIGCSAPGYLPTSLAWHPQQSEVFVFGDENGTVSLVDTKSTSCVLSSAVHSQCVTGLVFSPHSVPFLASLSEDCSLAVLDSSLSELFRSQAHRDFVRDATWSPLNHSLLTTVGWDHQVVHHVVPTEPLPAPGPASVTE

Structure (SMILES)	IC50 (PRMT5 [1])	IC50 (PRMT5 [2])	IC50 [3]	IC50 [4]	MTAP Intact/Deleted Ratio [3]
CC(=O)N1CC(Nc2cc(C(=O)NCC[C@H]3Cc4ccc(OCc5ocnc5C)cc4CN3)nc(N3CCCCC3)n2)C1 (single isomer, unassigned) [83**]	< 0.05 µM	0.05 to 0.5 µM			
CC(=O)N1CC(Nc2cc(C(=O)NCC[C@@H]3Cc4ccc(OCc5ocnc5C)cc4CN3)nc(N3CCCCC3)n2)C1 (single isomer, unassigned) [85**]	0.05 to 0.5 µM	0.5 to 5 µM			
Cn1nccc1COc1ccc2c(c1)CN[C@H]([C@H](O)CNC(=O)c1ccnc(NC3CCC3)c1)C2 [Compound 14, 2-(cyclobutylamino)-N—((R)-2-hydroxy-2-((S)-7-((1-methyl-1H-pyrazol-5-yl)methoxy)-1,2,3,4-tetrahydroisoquinolin-3-yl)ethyl)isonicotinamide]			< 1 µM	≥ 10 µM	
Cc1ncoc1COc1ccc2c(c1)CN[C@H]([C@H](O)CNC(=O)c1ccnc(NC3CCC3)c1)C2 [Compound 15, 2-(cyclobutylamino)-N—((R)-2-hydroxy-2-((S)-7-((4-methyloxazol-5-yl)methoxy)-1,2,3,4-tetrahydroisoquinolin-3-yl)ethyl)isonicotinamide]			< 1 µM	≥ 10 µM	
O=C(NC[C@@H](O)[C@@H]1Cc2ccc(OCc3cnco3)cc2CN1)c1ccnc(NC2CCC2)c1 [Compound 19, 2-(cyclobutylamino)-N—((R)-2-hydroxy-2-((S)-7-(oxazol-5-ylmethoxy)-1,2,3,4-tetrahydroisoquinolin-3-yl)ethyl)isonicotinamide]			1 to 10 µM	≥ 10 µM	
CC(=O)N1CC(Nc2cc(C(=O)NC[C@@H](O)[C@@H]3Cc4ccc(OCc5ocnc5C)cc4CN3)nc(N3CCCCC3)n2)C1 [Compound 22, 6-((1-acetylazetidin-3-yl)amino)-N—((R)-2-hydroxy-2-((S)-7-((4-methyloxazol-5-yl)methoxy)-1,2,3,4-tetrahydroisoquinolin-3-yl)ethyl)-2-(piperidin-1-yl)pyrimidine-4-carboxamide]			< 1 µM	1 to 10 µM	
CC(=O)N1CC2(CC(Nc3cc(C(=O)NC[C@@H](O)[C@@H]4Cc5ccc(OCc6ocnc6C)cc5CN4)nc(N4CCCCC4)n3)C2)C1 [Compound 48, 6-[(2-acetyl-2-azaspiro[3.3]heptan-6-yl)amino]-N-[(2R)-2-hydroxy-2-[(3S)-7-[(4-methyloxazol-5-yl)methoxy]-1,2,3,4-tetrahydroisoquinolin-3-yl]ethyl]-2-(1-piperidyl)pyrimidine-4-carboxamide]			< 1 µM	< 1 µM	
CC(=O)N1CC(Nc2cc(C(=O)NC[C@@H](O)[C@@H]3Cc4ccc(OCc5ocnc5C)cc4CN3)nc(N3CCC(C)CC3)n2)C1 [Compound 62, 6-[(1-acetylazetidin-3-yl)amino]-N-[(2R)-2-hydroxy-2-[(3S)-7-[(4-methyloxazol-5-yl)methoxy]-1,2,3,4-tetrahydroisoquinolin-3-yl]ethyl]-2-(4-methyl-1-piperidyl)pyrimidine-4-carboxamide]			< 1 µM	1 to 10 µM	
CC(=O)N1CC(Nc2cc(C(=O)NC[C@H](O)[C@@H]3Cc4ccc(OCc5ocnc5C)cc4CN3)nc(N3CCCCC3)n2)C1 [Compound 64]			1 to 10 µM		
Cc1ncoc1COc1cc2c(cc1F)C[C@@H]([C@H](O)CNC(=O)c1ccnc(NC3CCC3)c1)NC2 [Compound 65, 2-(cyclobutylamino)-N-[(2R)-2-[(3S)-6-fluoro-7-[(4-methyloxazol-5-yl)methoxy]-1,2,3,4-tetrahydroisoquinolin-3-yl]-2-hydroxy-ethyl]pyridine-4-carboxamide]	< 0.05 µM	0.5 to 5 µM	< 1 µM	≥ 10 µM	A* (an IC50 ratio greater than or equal to 10 fold between the IC50 in the HAP1 MTAP-intact cell line and the HAP1 MTAP-deleted cell line)
CCOc1cc(C(=O)N2C3CCC2COC3)ccc1C(=O)NC[C@@H](O)[C@@H]1Cc2ccc(OCc3ccncc3)cc2CN1 [Compound 73, 2-ethoxy-N-[(2R)-2-hydroxy-2-[(3S)-7-(4-pyridylmethoxy)-1,2,3,4-tetrahydroisoquinolin-3-yl]ethyl]-4-(3-oxa-8-azabicyclo[3.2.1]octane-8-carbonyl)benzamide]	0.05 to 0.5 µM	≥ 5 µM	1 to 10 µM		
CCOc1cc(C(=O)N2C3CCC2COC3)ccc1C(=O)NC[C@@H](O)[C@@H]1Cc2ccc(OCc3ccn[nH]3)cc2CN1 [Compound 76, 2-ethoxy-N-[(2R)-2-hydroxy-2-[(3S)-7-(1H-pyrazol-5-ylmethoxy)-1,2,3,4-tetrahydroisoquinolin-3-yl]ethyl]-4-(3-oxa-8-azabicyclo[3.2.1]octane-8-carbonyl)benzamide]	0.05 to 0.5 µM	0.5 to 5 µM		≥ 10 µM	
COCCN(C)c1nc(NC2CC3(CCC3)C2)cc(C(=O)NC[C@@H](O)[C@@H]2Cc3ccc(OCc4ocnc4C)cc3CN2)n1 [Compound 80]			< 1 µM	1 to 10 µM	

Further lines, with some results ahead:

IC50 (PRMT5 [1])	IC50 (PRMT5 [2])	Structure (SMILES)	IC50 [3]	IC50 [4]	MTAP Intact/Deleted Ratio [3]
< 0.05 µM	0.05 to 0.5 µM	COCCN(C)c1cc(C(=O)NC[C@@H](O)[C@@H]2Cc3ccc(OCc4ocnc4C)cc3CN2)cc(NC2CCN(C(C)=O)CC2)n1 [Compound 66]	< 1 µM	≥ 10 µM	A* (an IC50 ratio greater than or equal to 10 fold between the IC50 in the HAP1 MTAP-intact cell line and the HAP1 MTAP-deleted cell line)
< 0.05 µM	0.05 to 0.5 µM	CC(=O)N1CC(Nc2cc(C(=O)NC[C@@H](O)[C@@H]3Cc4ccc(OCc5ocnc5C)cc4CN3)cc(N3CCN(C(C)C)CC3)n2)C1 [Compound 67]	1 to 10 µM	≥ 10 µM	C* (an IC50 ratio of less than 3 fold between the IC50 in the HAP1 MTAP-intact cell line and the HAP1 MTAP-deleted cell line)
< 0.05 µM	0.05 to 0.5 µM	COCCN(C)c1cc(C(=O)NC[C@@H](O)[C@@H]2Cc3ccc(OCc4ocnc4C)cc3CN2)cc(NC2CC3(CCC3)C2)n1 [Compound 68]	< 1 µM	1 to 10 µM	A* (an IC50 ratio greater than or equal to 10 fold between the IC50 in the HAP1 MTAP-intact cell line and the HAP1 MTAP-deleted cell line)
< 0.05 µM	0.05 to 0.5 µM	COc1ccc(C(=O)N2CCc3cc(C(=O)NC[C@@H](O)[C@@H]4Cc5ccc(OCc6cnco6)cc5CN4)ccc3C2)cc1 [Compound 74, N-[(2R)-2-hydroxy-2-[(3S)-7-(oxazol-5-ylmethoxy)-1,2,3,4-tetrahydroisoquinolin-3-yl]ethyl]-2-(4-methoxybenzoyl)-3,4-dihydro-1H-isoquinoline-6-carboxamide]	< 1 µM		
< 0.05 µM	0.5 to 5 µM	COc1ccc(C(=O)N2CCc3cc(C(=O)NC[C@@H](O)[C@@H]4Cc5ccc(OCc6ccnn6C)cc5CN4)ccc3C2)cc1 [Compound 77, N-[(2R)-2-hydroxy-2-[(3S)-7-[(2-methylpyrazol-3-yl)methoxy]-1,2,3,4-tetrahydroisoquinolin-3-yl]ethyl]-2-(4-methoxybenzoyl)-3,4-dihydro-1H-isoquinoline-6-carboxamide]		1 to 10 µM	
< 0.05 µM	< 0.05 µM	Cc1ncoc1COc1ccc2c(c1)CN[C@H]([C@H](O)CNC(=O)c1cc(NC3CC4(CCC4)C3)nc(N3CCN(C(=O)C4CC4)CC3)n1)C2 [Compound 84]			
< 0.05 µM	< 0.05 µM	Cc1ncoc1COc1ccc2c(c1)CN[C@H]([C@H](O)CNC(=O)c1cc(NC3CC4(CCC4)C3)nc(N3CCN(C(C)C)CC3)n1)C2 [Compound 86]			

From patent publication US12403137B2, “Compounds and methods of use” (Tango Therapeutics, Inc., priority 2019, dated 2025)
